The source made the active and inactive calls. The calls are words filed in the database; no cut-off is given here. Where a SMILES comes first, the peptide text is derived from it. Bridges are numbered along the chain shown (N, C = ends). [ ]: non-standard residue; d: D form. Pen = CC(C)(S)[C@H](N)C(=O)O; hSer = N[C@@H](CCO)C(=O)O; Orn = NCCC[C@H](N)C(=O)O; Dab = NCC[C@H](N)C(=O)O
Assays:
[1] = molecular target: T1, Urotensin-2 receptor (Homo sapiens) (UniProt Q9UKP6); experiment: Modulation of human UTR stably expressed in HEK293 cells assessed as increase in Ca2+ level at 0.01 to 1 nM by Fura 2-AM dye based calcium mobilization assay; type: functional, cell-based; settings: filed as modulator, dose 0.01-1 nM
T1 sequence (whole entry): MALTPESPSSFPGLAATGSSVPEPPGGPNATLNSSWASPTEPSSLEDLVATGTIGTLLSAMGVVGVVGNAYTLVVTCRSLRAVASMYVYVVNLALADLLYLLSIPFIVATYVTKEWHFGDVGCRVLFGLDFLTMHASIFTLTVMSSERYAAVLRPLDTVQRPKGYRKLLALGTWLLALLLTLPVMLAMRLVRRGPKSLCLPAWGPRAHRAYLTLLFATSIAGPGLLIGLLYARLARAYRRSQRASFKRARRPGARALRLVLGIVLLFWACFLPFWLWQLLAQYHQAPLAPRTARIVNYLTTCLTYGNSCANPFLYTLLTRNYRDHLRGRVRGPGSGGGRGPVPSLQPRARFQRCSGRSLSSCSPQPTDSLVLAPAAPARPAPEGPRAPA

[2] = system: Aortic ring; experiment: Induction of contraction in Albino Wistar rat aortic ring at 1 to 30 nM; type: functional, tissue-based; settings: Aorta, dose 1-30 nM
[3] = molecular target: T1, Urotensin-2 receptor (Homo sapiens); experiment: Modulation of human UTR stably expressed in HEK293 cells assessed as increase in Ca2+ level at 0.1 to 100 nM by Fura 2-AM dye based calcium mobilization assay; type: functional, cell-based; settings: dose 0.1-100 nM
[4] = system: Aortic ring; experiment: Induction of contraction in Albino Wistar rat aortic ring at 1 to 30 nM relative to control; type: functional, Aorta; settings: dose 1-30 nM
[5] = molecular target: T1, Urotensin-2 receptor (Homo sapiens); experiment: Modulation of human UTR stably expressed in HEK293 cells assessed as increase in Ca2+ level at 0.1 nM by Fura 2-AM dye based calcium mobilization assay; type: functional, cell-based; settings: filed as modulator
[6] = system: Aortic ring; experiment: Induction of contraction in Albino Wistar rat aortic ring assessed as Emax of hU-II at 10 uM incubated for 30 mins in presence of hU-II (reference value: 214.5 +/- 10.51 dyne/mg); type: functional, Aorta; settings: 0.5 h
[7] = system: Aortic ring; experiment: Induction of contraction in Albino Wistar rat aortic ring assessed as Emax of hU-II at 1 uM incubated for 30 mins in presence of hU-II (reference value: 224.8 +/- 11.71 dyne/mg); type: functional, Aorta; settings: 0.5 h
[8] = system: Aortic ring; experiment: Induction of contraction in Albino Wistar rat aortic ring assessed as Emax of [Ala1]U-II at 1 uM incubated for 30 mins in presence of [Ala1]U-II (reference value: 220.3 +/- 17.48 dyne/mg); type: functional, Aorta; settings: 0.5 h
[9] = system: Aortic ring; experiment: Induction of contraction in Albino Wistar rat aortic ring assessed as Emax of U-II(4-11) at 1 uM incubated for 30 mins in presence of U-II(4-11) (reference value: 159.8 +/- 7.3 dyne/mg); type: functional, Aorta; settings: 0.5 h
[10] = system: Aortic ring; experiment: Induction of contraction in Albino Wistar rat aortic ring assessed as Emax of U-II(4-11) at 0.1 uM incubated for 30 mins in presence of U-II(4-11) (reference value: 159.8 +/- 7.39 dyne/mg); type: functional, Aorta; settings: 0.5 h
[11] = system: Aortic ring; experiment: Induction of contraction in Albino Wistar rat aortic ring assessed as Emax of [Ala1]U-II at 0.1 uM incubated for 30 mins in presence of [Ala1]U-II (reference value: 323 +/- 30.45 dyne/mg); type: functional, Aorta; settings: 0.5 h
[12] = system: Aortic ring; experiment: Induction of contraction in Albino Wistar rat aortic ring assessed as Emax of U-II(4-11) at 10 uM incubated for 30 mins in presence of U-II(4-11) (reference value: 152.4 +/- 5.1 dyne/mg); type: functional, Aorta; settings: 0.5 h
[13] = system: Aortic ring; experiment: Induction of contraction in Albino Wistar rat aortic ring assessed as Emax of [Ala1]U-II at 10 uM incubated for 30 mins in presence of [Ala1]U-II (reference value: 308.1 +/- 21.4 dyne/mg); type: functional, Aorta; settings: 0.5 h
[14] = system: Aortic ring; experiment: Induction of contraction in Albino Wistar rat aortic ring assessed as Emax of hU-II at 0.1 uM incubated for 30 mins in presence of hU-II (reference value: 251.4 +/- 15.43 dyne/mg); type: functional, Aorta; settings: 0.5 h
[15] = molecular target: T2, Urotensin-2 receptor (Homo sapiens, UniProt Q9UKP6); experiment: Modulation of human UTR stably expressed in HEK293 cells assessed as increase in Ca2+ level by Fura 2-AM dye based calcium mobilization assay; type: functional, cell-based
T2 sequence (Q9UKP6 whole entry): T1 sequence (whole entry)

[16] = system: Aortic ring; experiment: Induction of contraction in Albino Wistar rat aortic ring assessed as Emax of hU-II at 10 uM incubated for 30 mins in presence of hU-II (reference value: 238.4 +/- 9.53 dyne/mg); type: functional, Aorta; settings: 0.5 h
[17] = system: Aortic ring; experiment: Induction of contraction in Albino Wistar rat aortic ring assessed as Emax of [Ala1]U-II at 1 uM incubated for 30 mins in presence of [Ala1]U-II (reference value: 153.3 +/- 10.75 dyne/mg); type: functional, Aorta; settings: 0.5 h
[18] = system: Aortic ring; experiment: Induction of contraction in Albino Wistar rat aortic ring assessed as Emax of hU-II at 1 uM incubated for 30 mins in presence of hU-II (reference value: 214.5 +/- 10.51 dyne/mg); type: functional, Aorta; settings: 0.5 h
[19] = system: Aortic ring; experiment: Induction of contraction in Albino Wistar rat aortic ring assessed as Emax of hU-II at 0.1 uM incubated for 30 mins in presence of hU-II (reference value: 224.8 +/- 11.71 dyne/mg); type: functional, Aorta; settings: 0.5 h
[20] = system: Aortic ring; experiment: Induction of contraction in Albino Wistar rat aortic ring assessed as Emax of [Ala1]U-II at 10 uM incubated for 30 mins in presence of [Ala1]U-II (reference value: 391.6 +/- 38.83 dyne/mg); type: functional, Aorta; settings: 0.5 h
[21] = system: Aortic ring; experiment: Induction of contraction in Albino Wistar rat aortic ring assessed as Emax of [Ala1]U-II at 0.1 uM incubated for 30 mins in presence of [Ala1]U-II (reference value: 308.1 +/- 21.4 dyne/mg); type: functional, Aorta; settings: 0.5 h
[22] = system: Aortic ring; experiment: Induction of contraction in Albino Wistar rat aortic ring assessed as Emax of hU-II at 1 uM incubated for 30 mins in presence of hU-II (reference value: 251.4 +/- 15.43 dyne/mg); type: functional, Aorta; settings: 0.5 h
[23] = system: Aortic ring; experiment: Induction of contraction in Albino Wistar rat aortic ring assessed as Emax of hU-II at 10 uM incubated for 30 mins in presence of hU-II (reference value: 224.8 +/- 11.71 dyne/mg); type: functional, Aorta; settings: 0.5 h
[24] = system: Aortic ring; experiment: Induction of contraction in Albino Wistar rat aortic ring assessed as Emax of hU-II at 0.1 uM incubated for 30 mins in presence of hU-II (reference value: 279.9 +/- 11.02 dyne/mg); type: functional, Aorta; settings: 0.5 h

CC(C)[C@H](NC(=O)[C@@H]1CSSC[C@H](NC(=O)[C@H](CC(=O)O)NC(=O)[C@@H]2CCCN2C(=O)[C@@H](NC(=O)[C@H](C)N)[C@@H](C)O)C(=O)N[C@@H](Cc2ccccc2)C(=O)N[C@@H](Cc2c[nH]c3ccccc23)C(=O)N[C@@H](CCCCN)C(=O)N[C@@H](Cc2ccc(O)cc2)C(=O)N1)C(=O)O (H-ATPDCFWKYCV-OH; disulfide 5-10)
Activity [1]: Active

CC(C)[C@H](NC(=O)[C@@H]1CSSC(C)(C)[C@H](NC(=O)[C@@H](N)CC(=O)O)C(=O)N[C@@H](Cc2ccccc2)C(=O)N[C@H](Cc2c[nH]c3ccccc23)C(=O)N[C@@H](CCCN)C(=O)N[C@@H](Cc2ccc(O)cc2)C(=O)N1)C(=O)O (H-D[Pen]F[dW][Orn]YCV-OH; disulfide 2-7)
Activity [2]: inactive | Activity [3]: inactive

CC(C)[C@H](NC(=O)[C@@H]1CSSC[C@H](NC(=O)[C@H](CC(=O)O)NC(=O)[C@@H]2CCCN2C(=O)[C@@H](NC(=O)[C@@H](N)CCN)[C@@H](C)O)C(=O)N[C@@H](Cc2ccccc2)C(=O)N[C@@H](Cc2c[nH]c3ccccc23)C(=O)N[C@@H](CCCCN)C(=O)N[C@@H](Cc2ccc(O)cc2)C(=O)N1)C(=O)O (H-[Dab]TPDCFWKYCV-OH; disulfide 5-10)
Emax [4]: 97.78 dyn/mg

CC(C)[C@H](NC(=O)[C@@H]1CSSC[C@H](NC(=O)[C@H](CC(=O)O)NC(=O)[C@@H]2CCCN2C(=O)[C@@H](NC(=O)[C@@H](N)CCC(=O)O)[C@@H](C)O)C(=O)N[C@@H](Cc2ccccc2)C(=O)N[C@@H](Cc2c[nH]c3ccccc23)C(=O)N[C@@H](CCCCN)C(=O)N[C@@H](Cc2ccc(O)cc2)C(=O)N1)C(=O)O [UROTENSIN-II]
Emax [4]: 237.2 dyn/mg

CC(C)[C@H](NC(=O)[C@@H]1CSSC[C@H](NC(=O)[C@H](CC(=O)O)NC(=O)[C@@H]2CCCN2C(=O)[C@@H](NC(=O)[C@@H](N)CCO)[C@@H](C)O)C(=O)N[C@@H](Cc2ccccc2)C(=O)N[C@@H](Cc2c[nH]c3ccccc23)C(=O)N[C@@H](CCCCN)C(=O)N[C@@H](Cc2ccc(O)cc2)C(=O)N1)C(=O)O (H-[hSer]TPDCFWKYCV-OH; disulfide 5-10)
Activity [3]: inactive | Emax [4]: 144.2 dyn/mg | Activity [5]: Active

CC(C)[C@H](NC(=O)[C@@H]1CSSC(C)(C)[C@H](NC(=O)[C@H](CC(=O)O)NC(=O)[C@@H]2CCCN2C(=O)[C@@H](NC(=O)[C@@H](N)CCC(N)=O)[C@@H](C)O)C(=O)N[C@@H](Cc2ccccc2)C(=O)N[C@H](Cc2c[nH]c3ccccc23)C(=O)N[C@@H](CCCN)C(=O)N[C@@H](Cc2ccc(O)cc2)C(=O)N1)C(=O)O
Emax [6]: 245.7 dyn/mg | Emax [7]: 336.6 dyn/mg | Emax [8]: 295.9 dyn/mg | Emax [9]: 215.7 dyn/mg | Activity [2]: inactive | Emax [10]: 265.4 dyn/mg | Emax [11]: 46.4 dyn/mg | Activity ([3]; filed as modulator): Active | Emax [12]: 164.2 dyn/mg | Emax [13]: 218.8 dyn/mg | Emax [14]: 507.7 dyn/mg

CC(C)[C@H](NC(=O)[C@@H]1CSSC[C@H](NC(=O)[C@@H](N)CC(=O)O)C(=O)N[C@@H](Cc2ccccc2)C(=O)N[C@@H](Cc2c[nH]c3ccccc23)C(=O)N[C@@H](CCCCN)C(=O)N[C@@H](Cc2ccc(O)cc2)C(=O)N1)C(=O)O (H-DCFWKYCV-OH; disulfide 2-7)
EC50 [15]: 1.2 nM

CC(C)[C@H](NC(=O)[C@@H]1CSSC(C)(C)[C@H](NC(=O)[C@H](CC(=O)O)NC(=O)[C@@H]2CCCN2C(=O)[C@@H](NC(=O)[C@@H](N)CCC(=O)O)[C@@H](C)O)C(=O)N[C@@H](Cc2ccccc2)C(=O)N[C@H](Cc2c[nH]c3ccccc23)C(=O)N[C@@H](CCCN)C(=O)N[C@@H](Cc2ccc(O)cc2)C(=O)N1)C(=O)O
Emax [16]: 327 dyn/mg | Emax [17]: 146.8 dyn/mg | Emax [9]: 166.6 dyn/mg | Emax [18]: 143.5 dyn/mg | Activity [2]: inactive | Emax [10]: 223.4 dyn/mg | Emax [19]: 251.6 dyn/mg | Emax [20]: 727.7 dyn/mg | Activity ([3]; filed as modulator): Active | Emax [12]: 231 dyn/mg | Emax [21]: 216.19 dyn/mg

CC(C)[C@H](NC(=O)[C@@H]1CSSC(C)(C)[C@H](NC(=O)[C@H](CC(=O)O)NC(=O)[C@@H]2CCCN2C(=O)[C@@H](NC(=O)[C@@H](N)CCN)[C@@H](C)O)C(=O)N[C@@H](Cc2ccccc2)C(=O)N[C@H](Cc2c[nH]c3ccccc23)C(=O)N[C@@H](CCCN)C(=O)N[C@@H](Cc2ccc(O)cc2)C(=O)N1)C(=O)O
Emax [8]: 99.6 dyn/mg | Emax [9]: 166.4 dyn/mg | Activity [2]: inactive | Emax [10]: 98.9 dyn/mg | Emax [22]: 397 dyn/mg | Emax [23]: 208.6 dyn/mg | Emax [11]: 38.23 dyn/mg | Emax [24]: 164 dyn/mg | Activity [3]: inactive | Emax [12]: 119.5 dyn/mg | Emax [13]: 141.2 dyn/mg

Source: ChEMBL document CHEMBL5550214, “Expanding Structure-Activity Relationships of Human Urotensin II Peptide Analogues: A Proposed Key Role of the N-Terminal Region for Novel Urotensin II Receptor Modulators” (J Med Chem, 2024)
